Test results taken from patent US20200368310A1, “TREATMENT WITH NMDA RECEPTOR MODULATORS” (Naurex, Inc, priority 2017, published 2020).
Residues, ends and D or L forms follow the SMILES beside them.

System: Male rats
Assay: Sleep-wake cycle analysis by telemetric EEG recording in rats
Format: in vivo, rat
Settings: for percentage of active waking: FIG. 4B
Method: Male rats were anesthetized and surgically implanted with 2 surface electrodes in the frontoparietal cortex and 2 depth electrodes in the CA1 region of the hippocampus (AP +5.0 mm, L ±2.5 mm, V +7.0 mm). After ≥10 days recovery, telemetric transmitters were connected to electrodes for electroencephalographic (EEG) recordings. On the day of experiment, rats were injected at the beginning of the light phase with rapastinel (3, 10, or 30 mg/kg, IV), ketamine (30 mg/kg, IP), or the positive control zolpidem (12 mg/kg, PO) using a treatment schedule based on a cross-over design (n=9-10/dose/group) in which rats received zolpidem or rapastinel at session 1 and then rapastinel and/or ketamine at sessions 2-4. Physiological saline was used as the vehicle control
Sleep-wake cycles were measured continuously following rapastinel treatment for the next 23 hours and were analyzed based on a spectral power analysis. Latencies to first occurrence of SWS and REM sleep, as well as percent time spent in SWS, REM sleep, and wakefulness, were calculated for the total recording sessions (23 hours), the half cycles (0-12 and 12-23 hours), and 5 time segments (0-4, 4-8, 8-12, 12-18, and 18-23 hours). Depth of SWS (defined as the ratio between alpha and delta spectral power) was also calculated. Differences between vehicle and test drugs were calculated for all variables, for each animal, and for the means of the animals per treatment group, and analyzed using a paired t-test

CNC1(c2ccccc2Cl)CCCCC1=O (stereo not drawn) [Ketamine, ketamine]
alpha/delta ratio (depth of SWS) (ketamine 30 mg/kg IP, 0-4 hours post-dose, P<0.001): concomitant decrease | duration of SWS (ketamine 30 mg/kg IP, 0-4 hours post-dose, P<0.001, FIG. 2A): decreased | duration of REM sleep (ketamine 30 mg/kg IP, 0-4 hours post-dose, P<0.001, FIG. 3): decreased | waking (duration) (ketamine 30 mg/kg IP, 12-23 hours post-dose, P<0.01, FIG. 4A): small but significant decrease | REM sleep (duration) (ketamine 30 mg/kg IP, 12-23 hours post-dose, P<0.05, FIG. 3): compensatory increase | percentage of active waking (ketamine 30 mg/kg IP, 12-23 hours post-dose, P<0.05): significantly decreased | duration of waking (ketamine 30 mg/kg IP, first 4 hours post-dose, P<0.001, FIG. 4A): significantly increased

C[C@@H](O)[C@H](N)C(=O)N1CCC[C@H]1C(=O)N1CCC[C@H]1C(=O)N[C@H](C(N)=O)[C@@H](C)O [Rapastinel, rapastinel] (H-TPPT-NH2)
percentage of active waking (rapastinel 30 mg/kg IV, 8-12 hours post-dose, P<0.01): small but significant decrease | percentage of active waking (rapastinel 30 mg/kg IV, 18-23 hours post-dose, P<0.05): small but significant decrease | percentage of active waking (rapastinel, all doses and periods except 8-12 and 18-23 hours at 30 mg/kg): no effect

Cc1ccc(-c2nc3ccc(C)cn3c2CC(=O)N(C)C)cc1 [Zolpidem, zolpidem]
percentage of active waking (zolpidem 12 mg/kg PO, 0-12 hours post-dose, P<0.05): significantly decreased | duration of REM sleep (zolpidem 12 mg/kg PO, 4-8 hours post-dose, P<0.05, FIG. 3): significantly decreased
